Reference: ChEMBL document CHEMBL1143687, “Synthesis of analogues of a flexible thiopyrylium photosensitizer for purging blood-borne pathogens and binding mode and affinity studies of their complexes with DNA” (Bioorg Med Chem, 2007)

What was measured:
[1] = Partition coefficient, log P by shake flask method; type: physicochemical; conditions: octanol/water
[2] = Binding affinity to M13mp19 DNA by spectrophotometric titration method
[3] = test system: DNA; test: Binding affinity to calf thymus DNA by spectrophotometric titration method; type: nucleic-acid assay; conditions: Bos taurus
[4] = test system: DNA; test: Binding affinity to calf thymus DNA by isothermal titration calorimetry; type: nucleic-acid assay; conditions: Bos taurus
[5] = test system: Escherichia coli; test: Binding affinity to pUC19 DNA assessed as drug concentration to induce plasmid re-supercoiling by topoisomerase 1 DNA unwinding assay

| SMILES | logP [1] | Kb [2] | Kb [3] | Kb [4] | Kb [5] |
| --- | --- | --- | --- | --- | --- |
| CN(C)c1ccc(-c2cc(-c3ccc(N(C)C)cc3)[s+]c(C(C)(C)C)c2)cc1 | 1.51 | 0.91 10^4/M | 10.1 10^4/M | 4.2 10^5/M | 23 10^6/M |
| CCc1cc(-c2ccc(N(C)C)cc2)cc(-c2ccc(N(C)C)cc2)[s+]1 | 0.13 | 1.8 10^4/M | – | – | – |
| Cc1cc(-c2ccc(N(C)C)cc2)cc(-c2ccc(N(C)C)cc2)[s+]1 | 0.6 | 6.1 10^4/M | 5.2 10^4/M | 1.7 10^5/M | 66 10^6/M |

More lines, now with the values ahead:

| logP [1] | Kb [2] | Kb [3] | Kb [4] | Kb [5] | SMILES |
| --- | --- | --- | --- | --- | --- |
| 0.82 | 3.47 10^4/M | 5 10^4/M | 2.4 10^5/M | 45 10^6/M | CCCc1cc(-c2ccc(N(C)C)cc2)cc(-c2ccc(N(C)C)cc2)[s+]1 |
| 0.23 | 1.17 10^4/M | – | – | – | CC(C)c1cc(-c2ccc(N(C)C)cc2)cc(-c2ccc(N(C)C)cc2)[s+]1 |
| 1.57 | 2.5 10^4/M | 8.7 10^4/M | 3.9 10^5/M | 22 10^6/M | CN(C)c1ccc(-c2cc(-c3ccc(N(C)C)cc3)[se+]c(C(C)(C)C)c2)cc1 |
| 1.63 | 7.58 10^4/M | – | – | – | CCCCc1cc(-c2ccc(N(C)C)cc2)cc(-c2ccc(N(C)C)cc2)[s+]1 |
